What is called TGI is the concentration at which net growth stops. Higher therefore signals lower sensitivity of the cells. Broadly, the GI50 is the concentration that inhibits growth by half.

TGI and GI50 data for 27 compounds are collected here from PubChem BioAssay (NCI).

Experiment in all cases: DTP human tumour cell line panel, 48 h
The test system of experiment [1] is NCI/ADR-RES ovarian.
Experiment [2] concerns 786-0 renal.
Experiment [3] relates to SNB-75 CNS.
Experiment [4] concerns HOP-92 NSCLC.
Experiment [5] has as its system OVCAR-4 ovarian.
Experiment [6] relates to MCF7 breast.
In experiment [7] the test system is CAKI-1 renal.
Experiment [8] relates to NCI-H460 lung.
The test system of experiment [9] is OVCAR-5 ovarian.
Experiment [10] concerns COLO 205 colon.

Where “and” joins values, the source holds several entries; their conditions need not be identical. Equal values may be shown once.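 Compound exposure: 48 hours, 5 concentrations, 96-well plates. Abbreviation: GI50, concentration required for 50% inhibition of growth. TGI denotes the concentration required for complete inhibition of growth.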 Some results are limits rather than exact numbers.

`CO[C@H]1O[C@@H]2CO[C@@H](c3ccccc3)O[C@H]2C[C@]12CCC/C=C\CO2`: the TGI in experiment [1] is 73.6 µM; in experiment [2] it was 26.2 µM; in experiment [3], 61.8 µM; in experiment [4], 28.4 µM; in [5] it was > 75 µM; in [6], 35.7 µM. Further, the TGI in experiment [7] is > 75 µM; in [8] it was > 75 µM; in experiment [9] it was > 75 µM; in [10], 26.6 µM.

With `Fc1ccc(C(OCCN2CCC3CCC(C2)N3Cc2cc3ccccc3[nH]2)c2ccc(F)cc2)cc1` (configuration not stated), the TGI in experiment [1] was determined as 3.1 µM; in experiment [2], 3.08 µM; in [3], 3.97 µM; in experiment [4] it was 3.62 µM; in [5] it was 5.68 µM; in [6] it was 3.57 µM. Further, the TGI in experiment [7] worked out at 5.69 µM; in [8] it was 3.67 µM; in experiment [9], 4.18 µM; in experiment [10] it was 2.14 µM.

Regarding `CC(=O)OC[C@@]12C[C@H]3C(=O)C(C)(C)C[C@H]3[C@]1(C)[C@@H](OC(C)=O)[C@]1(O)[C@H]([C@@H](OC(=O)c3ccccc3)[C@@H](C)[C@H]1OC(C)=O)[C@H]2OC(C)=O`, the TGI in experiment [1], in [2], in [3], in experiment [4], in [5] and in experiment [6] was > 20 µM in each case. Moreover, the concentration for total growth inhibition (TGI) in experiment [7], in experiment [8], in [9] and in experiment [10] was > 20 µM in each case.

Consider `N#Cc1c(NC(=S)NCc2ccccc2)sc2c1CCN(N1CCc3c(sc(NC(=S)NCc4ccccc4)c3C#N)C1)C2`, for which the concentration for total growth inhibition (TGI) in experiment [1], in experiment [2], in experiment [3], in experiment [4], in [5] and in experiment [6] was > 100 µM in each case. In addition, the TGI in experiment [7], in experiment [8], in [9] and in experiment [10] was > 100 µM throughout.

Consider `C#CCOC(=O)c1ccccc1OC(C)=O`, for which the TGI in experiment [1], in experiment [2], in experiment [3], in experiment [4], in [5] and in experiment [6] was > 100 µM each time. Besides, the TGI in experiment [7], in experiment [8], in experiment [9] and in experiment [10] was > 100 µM each time.

As for `CC(=O)Oc1c(OC(C)=O)c(-c2ccc(O)c(O)c2)c(O)c(O)c1-c1ccc(O)cc1`, the TGI in experiment [1] is > 100 µM; in experiment [3], > 100 µM; in [4], > 100 µM and 96.6 µM; in [5], > 100 µM; in experiment [6], 35.9 µM and > 100 µM; in experiment [7] it was > 100 µM. The TGI in experiment [8], in experiment [9] and in [10] was > 100 µM throughout. Besides, the GI50 in experiment [4] is 60.8 µM; in experiment [5] it was 59 µM; in experiment [6], 18.8 µM; in experiment [8], 69.7 µM.

For `COc1cc2c(cc1OC)CCN=C2`, the TGI in experiment [1], in experiment [3], in experiment [4], in [5], in experiment [6] and in [7] was > 100 µM throughout. For the same compound, the TGI in experiment [8], in [9] and in experiment [10] was > 100 µM each time.

With `Cc1cc2c(-c3ccccc3)cc(=O)[nH]c2cc1N`, the total growth inhibition concentration (TGI) in experiment [1], in experiment [2], in experiment [3], in experiment [4], in [5] and in experiment [6] was > 100 µM in each case. In addition, the TGI in experiment [7], in [8], in experiment [9] and in experiment [10] was > 100 µM in each case.

Regarding `O=C(/C=C/c1ccc(Cl)c(Cl)c1)Oc1ccc(/C=C2\CCCCC2=O)cc1`, the concentration for total growth inhibition (TGI) in experiment [1], in [2], in experiment [3], in experiment [4], in experiment [5] and in experiment [6] was > 100 µM in each case. Further, the TGI in experiment [7], in experiment [8], in [9] and in experiment [10] was > 100 µM throughout.

As to `NC(CCCCNc1ccn(C2OC(CO)C(O)C2O)c(=O)n1)C(=O)O` (configuration not stated), the TGI in experiment [1], in [2], in experiment [3], in [4], in experiment [5] and in experiment [6] was > 100 µM throughout. Besides, the TGI in experiment [7], in experiment [8], in experiment [9] and in experiment [10] was > 100 µM in each case.

As to `CN1C[C@@H]2CCCN2P1Oc1cccc2cccnc12` (some centres not stated), the TGI in [1] is 62.3 µM; in experiment [2], > 100 µM; in [3], > 100 µM; in experiment [4] it was > 100 µM; in experiment [5], > 100 µM; in experiment [6] it was 65.4 µM. Also, the concentration for total growth inhibition (TGI) in experiment [7], in experiment [8], in [9] and in experiment [10] was > 100 µM each time.

For `Nc1ncc(Cc2nc3ccccc3s2)s1`, the TGI in experiment [1], in [2], in experiment [3], in experiment [4], in [5] and in experiment [6] was > 100 µM in each case. In addition, the TGI in experiment [7], in experiment [8], in experiment [9] and in [10] was > 100 µM each time.

Take `C[N+]1(C)CN(c2ccccc2)C2(CCN(CCCC(=O)c3cccs3)CC2)C1=O`: the TGI in experiment [1], in experiment [2], in [3], in experiment [4], in [5] and in experiment [6] was > 100 µM in each case. The TGI in experiment [7], in experiment [8], in experiment [9] and in experiment [10] was > 100 µM each time.

Consider `NC(=O)N(O)c1cccc(Br)c1`, for which the TGI in experiment [1], in experiment [2], in experiment [3], in experiment [4], in experiment [5] and in [6] was > 100 µM each time. Also, the TGI in [7], in experiment [8], in [9] and in [10] was > 100 µM in each case.

Regarding `Nc1c(C(=O)c2ccccc2)[nH]c(NCc2ccccc2)c1C(=S)Nc1ccccc1`, the TGI in [1], in experiment [2], in [3], in [4], in [5] and in experiment [6] was > 100 µM throughout. Also, the TGI in experiment [7], in [8], in experiment [9] and in experiment [10] was > 100 µM each time.

For the compound `CCCCCCCCCN1CCC(=O)C(C(=O)OC)C1` (configuration not stated), the TGI in experiment [1] was found to be 26.8 µM; in experiment [2], 30.6 µM; in experiment [3], 34 µM; in [4] it was 33.9 µM; in experiment [5], 12.4 µM; in experiment [6] it was 24.9 µM. In addition, the TGI in experiment [7] was found to be 29.2 µM; in [8], 32.9 µM; in experiment [9], 29 µM; in [10], 30.8 µM.

Turning to `C[C@@H]1OC(=O)C[C@H]2CC(=O)N(CCc3cn(S(=O)(=O)C(F)(F)F)c4ccccc34)C[C@@H]21`, the TGI in experiment [1], in experiment [2], in experiment [3], in experiment [4], in experiment [5] and in experiment [6] was > 100 µM throughout. Besides, the concentration for total growth inhibition (TGI) in experiment [7], in experiment [8], in experiment [9] and in experiment [10] was > 100 µM in each case.

On to `CSCCC(NC(c1ccccc1)c1ccccc1)[P+](=O)O` (configuration not stated), for which the TGI in [1], in experiment [2], in [3], in experiment [4], in experiment [5] and in experiment [6] was > 100 µM throughout. In addition, the TGI in experiment [7], in experiment [8], in experiment [9] and in [10] was > 100 µM throughout.

For the compound `CCC(=O)NCCc1c[nH]c2ccc(OC)cc12`, the TGI in experiment [1], in [2], in experiment [3], in [4], in experiment [5] and in experiment [6] was > 100 µM throughout. Moreover, the total growth inhibition concentration (TGI) in experiment [7], in experiment [8], in experiment [9] and in experiment [10] was > 100 µM each time.

Regarding `CC(Cc1ccc(O)c(O)c1)C(C)Cc1ccc(O)c(O)c1` (configuration not stated), the concentration for total growth inhibition (TGI) is 64.7 µM in experiment [1]; 32.8 µM in [2]; 61.7 µM in experiment [3]; 12.2 µM in [4]; 29.5 µM in experiment [5]; 41.8 µM in experiment [6]. In addition, the TGI came to 25.4 µM in [7], 35 µM in experiment [8], 50.7 µM in [9] and 35.9 µM in experiment [10].

Turning to `CC(C)(C)OC(=O)N1CCC23CCCC2C(=O)CC=C13` (configuration not stated), the TGI in [1], in experiment [2], in experiment [3], in experiment [4], in experiment [5] and in experiment [6] was > 100 µM in each case. Besides, the TGI in [7], in experiment [8], in experiment [9] and in experiment [10] was > 100 µM in each case.

`CCOC(=O)c1nc2cc(C(F)(F)F)ccc2nc1Nc1ccc(Cl)c(Cl)c1`: the TGI in [1] was > 100 µM; in experiment [2], > 100 µM; in experiment [3], > 100 µM; in experiment [4], 94.1 µM; in experiment [5], > 100 µM; in experiment [6], > 100 µM. The TGI in experiment [7], in [8], in [9] and in [10] was > 100 µM throughout.

Take `Cc1ccc2[nH]c3c(C)c4ccncc4c(C)c3c2c1`: the TGI in experiment [1] stood at 2.24 µM; in experiment [3], 3.17 µM; in experiment [4], 3.09 µM; in experiment [5], 2.56 µM; in [6], 2.32 µM; in [7] it was 1.85 µM. Further, the TGI in [8] turned out to be 1.77 µM; in experiment [9] it was 2.81 µM; in experiment [10], 2.23 µM.

For `O=C(NCc1ccccc1)c1cnc(Cl)cn1`, the TGI in experiment [1] was 44.2 µM; in [2], > 100 µM; in experiment [3], > 100 µM; in experiment [4], 55 µM; in experiment [5] it was > 100 µM; in experiment [6], > 100 µM. Further, the TGI in [7] was 33 µM; in [8], > 100 µM; in [10] it was > 100 µM.

With `CC1(C)CC(=O)c2c(nc3ccc4ccccc4c3c2-c2ccc(NC(=O)CCCCC(=O)Nc3ccc(-c4c5c(nc6ccc7ccccc7c46)CC(C)(C)CC5=O)cc3)cc2)C1`, the TGI in experiment [1], in experiment [2], in experiment [3], in [4], in experiment [6] and in experiment [7] was > 100 µM throughout. Also, the concentration for total growth inhibition (TGI) in experiment [8], in [9] and in experiment [10] was > 100 µM throughout.

Regarding `Nc1ccn(C2OC(COP(=O)(O)Oc3ccccc3)C(O)C2O)c(=O)n1` (configuration not stated), the concentration for total growth inhibition (TGI) in experiment [1], in experiment [3], in [4], in experiment [5], in experiment [6] and in experiment [7] was > 100 µM each time. For the same compound, the TGI in experiment [8], in experiment [9] and in experiment [10] was > 100 µM each time.

With `Cc1ccc(/C=N/Nc2ncccn2)s1`, the TGI in experiment [1], in experiment [2], in [3], in experiment [4], in experiment [5] and in experiment [6] was > 100 µM in each case. Also, the TGI in experiment [7], in experiment [9] and in [10] was > 100 µM throughout.
